Test results from patent publication US6083920A, “Compositions for modulating intracellular inositol trisphosphate concentration” (priority 1996, dated 2000).

How the values were obtained:
[1] = Membrane insertion potential
[2] = tested on: InsP3 signalling in primary chick cortical neurons; assay: Phosphoinositide hydrolysis assay (InsP3 signalling) in cultured primary cortical neurons; type: cell-based; settings: for physiological effect in this system: amino group amidated, non-ionic; for Ins-P-n, modulator Lsm:Sph: 20 μM Lysosphingomyelin + 20 μM Sphingosine; for Ins-P-n, modulator Psy:Sph: 20 μM Psychosine + 20 μM Sphingosine; for fold induction at 100 µM: Gallus gallus, Cortical neurone, 20 min, read-out: Ins-P-n (agonist alone)
Procedure: Primary cultures of neurons were prepared from the telencephalon of white Leghorn chick embryos on the eighth day of their development (Rosenberg et al., J.Biol. Chem. 267:10601-10612, 1992). The neurons were seeded in 24-well plastic tissue culture plates that had been coated with L-polylysine. The density of the neurons was 10^5 cells per well, and they were cultured in Dulbecco's modified Eagle's medium/Ham's high glucose F-12 medium (1:1, vol:vol) containing 500 ng/L sodium selenite, 500 μg/L transferrin, and 165 pmole/L EGF. The cultures were maintained at 37° C. under 5% CO2 in air for 4 days, by which time the cells had differentiated into neurite-bearing cortical granulocytic neurons. These cultures of mature embryonic neurons were used for phosphoinositide hydrolysis assays (as described in Example 2).
Receptor-stimulated and basal unstimulated hydrolysis of phosphoinositides was measured by the following procedure. In order to label the cellular phosphoinositides metabolically, the primary cultures of chick cortical neurons (described in Example 1) were incubated overnight with 0.5 ml Dulbecco's modified Eagle's medium containing 1 μCi [^3 H]myo-inositol per well. The cells were then washed twice with 1 ml Dulbecco's phosphate-buffered saline (PBS) and 0.5 ml of PBS containing 4.5 g/L glucose was added. Sphingosine, psychosine, lysosulphatide, or lysosphingomyelin, prepared as the hydrochloride salt dissolved in water, were then added to produce the desired extracellular concentration in specific wells, […] The cells were then washed twice with 1 ml PBS, and pre-incubated for 15 minutes at 37° C. with 0.5 ml PBS containing 10 mM LiCl and the compound to be tested was added. […] The tubes were vortexed thoroughly, then centrifuged at 500×g for 5 minutes to separate the aqueous and chloroform phases. For each sample, a 1.5-ml aliquot of the upper (aqueous) phase was applied to a small column containing BioRad AG1X8 resin (formate form). Free [^3 H]inositol and [^3 H]glycerophosphoinositol were washed through the column with 5 ml of a solution containing 5 mM sodium borate and 60 mM sodium formate. The total phosphorylated [^3 H] inositol fraction was eluted from the column for radiometric scintillation spectrometry analysis with 3 ml 1.0 M ammonium formate/0.1 M formic acid;
In addition, a 0.5 ml aliquot of the lower (chloroform) phase of each sample was analyzed radiometrically by scintillation spectrometry in order to determine the quantity of lipid-bound [^3 H]myo-inositol. Estimation of phosphoinositide hydrolysis by phospholipase C is based upon the quantity of [^3 H]inositol phosphates produced, and is expressed as the percentage of the latter relative to total free and componential [^3 H]inositol (dpm ammonium formate+dpm chloroform fractions).
Cultured primary chick cortical neurons that were prelabeled with [^3 H]myo-inositol were examined for enhanced InsP3 signalling in response to various agonists including glutamate, aspartate, and the metabotropic […] receptor agonists ibotenate and quisqualate.

rat C6 glioma cells = settings: cited from earlier work
[3] = tested on: calcium ion signalling in cortical neurons; assay: Metabotropic receptor function: calcium ion signalling (fura 2) in intact cortical neurons; type: cell-based, chick; settings: 10 μM agonist, 30 minutes at 37° C., fura 2 fluorescence ratio
Procedure: Metabotropic receptor function was examined in intact neurons by assaying lysosphingolipid modulation of calcium ion signalling. Approximately 1×10^6 cortical neurons were cultured on rectangular L-polylysine-coated coverslips and loaded with lysocerebroside or lysosphingomyelin to a level of 150±20 pmoles per mg protein. The neurons were returned to complete Ham's high glucose medium/DMEM (1:1, vol:vol) and infiltrated with 5 μM fura 2/AM (Molecular Probes, Eugene, Oreg.). Fura 2 is a calcium chelator whose fluorescence absorbance shifts to shorter wavelength upon calcium ion binding is measurable in intact cells. A change in intraneuronal calcium ion concentration was monitored as a change in the fluorescence spectrum.
The neurons were exposed to 10 μM glutamate agonist (for example, ibotenate) for 30 minutes at 37° C. The coverslips were then transferred to quartz cuvettes in medium containing 250 μM sulfinpyrazone to prevent fura 2/AM diffusion. Fluorescence ratios were recorded in a Perkin-Elmer LS-5 Fluorescence Spectrometer thermostatted at 37° C. at excitation wavelengths of 340 and 380 nm, a nd emission measurement at 500 nm. Calcium ion signalling in agonist-stimulated neurons was 3.0±0.2 arbitrary units for ibotenate-exposed neurons.

[4] = then 100 μM agonist 20 min, normalized to control = 1.00

CCCCCCCCCCCCCCC[C@@H](O)[C@@H](N)CO [sphinganine]
membrane insertion potential relative to sphingosine [1]: less than one third the membrane insertion potential of sphingosine

CCCCCCCCCCCCC/C=C/[C@@H](O)[C@@H](N)CO[C@@H]1O[C@H](CO)[C@H](O)[C@H](OS(=O)(=O)O)[C@H]1O [Lysosulphatide]
inhibitory effect on InsP3 enhancement caused by sphingosine or metabotropic glutamate receptor agonists ([2]; cortical neurons): without inhibitory effect

CN[C@@H]1C[C@H]2O[C@@](C)([C@@H]1OC)n1c3ccccc3c3c4c(c5c6ccccc6n2c5c31)C(=O)NC4 [staurosporine]
influence on the effects of sphingosine, lysocerebroside, or lysosphingomyelin on InsP3 production ([2]; brain neurons responsive to excitatory amino acids): does not influence

CCCCCCCCCCCCC/C=C/[C@@H](O)[C@H](CO)NC(C)=O [N-acetyl sphingosine]
physiological effect in this system [2]: little or no physiological effect

N[C@@H](CC(=O)O)C(=O)O [Aspartate, aspartate]
Ins-P-n, modulator Lsm:Sph [2, 4]: 2.00 ± 0.05
Ins-P-n, modulator Psy:Sph [2, 4]: 2.65 ± 0.50
fold induction at 100 µM [2]: 2.7 ± 0.06
Ins-P-n, modulator Lsm ([2]; neurons preincubated with 20 μM Lysosphingomyelin 30 min, washed, then 100 μM agonist 20 min, normalized to control = 1.00): 1.00 ± 0.06
Ins-P-n, modulator Psy ([2]; neurons preincubated with 20 μM Psychosine 30 min, washed, then 100 μM agonist 20 min, normalized to control = 1.00): 1.00 ± 0.06

CN(C)CCCN1c2ccccc2Sc2ccc(Cl)cc21 [chlorpromazine, 10-(3-dimethylaminopropyl)-2-chlorphenothiazine]
level of InsP3 (rat C6 glioma cells): raises the level of InsP3

NC(C(=O)O)c1cc(O)no1 (stereo not drawn) [Ibotenate, ibotenate]
Ins-P-n, modulator Lsm:Sph [2, 4]: 2.10 ± 0.10
Ins-P-n, modulator Psy:Sph [2, 4]: 3.10 ± 0.35
fold induction at 100 µM [2]: 3 ± 0.1
calcium ion signalling in agonist-stimulated neurons [3]: 3.0±0.2 arbitrary units

ceramide
physiological effect in this system [2]: little or no physiological effect

N[C@@H](CCC(=O)O)C(=O)O [Glutamate, glutamate]
Ins-P-n, modulator Lsm:Sph [2, 4]: 3.00 ± 0.10
Ins-P-n, modulator Psy:Sph [2, 4]: 3.00 ± 0.35
fold induction at 100 µM [2]: 3.3 ± 0.05
